Patent US4157347A, “N-cyano isothioureas” (Bristol-Myers Company, priority 1978, dated 1979)

How the values were obtained:
histamine H2-receptors [1] = biological target: T1, histamine H2-receptors (Cavia porcellus, UniProt P47747); conditions: literature, in words; cited from earlier work
T1 construct: The spontaneously beating right atrium was dissected free from other tissues; from tissue; host or cells: isolated spontaneously beating right atrium of male Hartley guinea pigs

gastric secretion = conditions: in words, cited from earlier work
[2] = in words; cited from earlier work
histamine H2-receptors [3] = biological target: T1, histamine H2-receptors; assay: Histamine H2-receptor antagonism, isolated guinea pig right atria assay; format: cell-based; conditions: cumulative histamine 1×10^-7 to 3×10^-5 M
Protocol: Subsequent investigations by Hughes and Coret, Proc. Soc. […] Black et al., Agents and Actions, 3, 133 (1973) and Brimblecombe et al., Fed. […] The present comparative studies were carried out using a modification of the procedure reported by Reinhardt et al., Agents and Actions, 4, 217 (1974).
Male Hartley strain guinea pigs (350-450 gm.) were sacrificed by a blow on the head. The heart was excised and placed in a Petri dish of oxygenated (95% O2, 5% CO2) modified Krebs solution (g./liter: NaCl 6.6, KCl 0.35, MgSO4.7 H2 O 0.295, KH2 PO4 0.162, CaCl2 0.238, NaHCO3 2.1 and dextrose 2.09). The spontaneously beating right atrium was dissected free from other tissues and a silk thread (4-0) attached to each end. The atrium was suspended in a 20 ml. muscle chamber containing oxygenated modified Krebs solution maintained at 32° C. Atrial contractions were recorded isometrically by means of a Grass FT 0.03 force displacement transducer and recordings of contractile force and rate were made with a Beckman RP Dynograph.
A resting tension of 1 g. was applied to the atrium and it was allowed to equilibrate for 1 hour.
Concentration-response curve displacement factors were calculated as follows: [formula] The factor obtained for BL-5641 was then expressed as a ratio of the factor obtained for cimetidine. [formula]

[4] = clinical, in words; cited from earlier work
H2 receptors = conditions: in words; cited from earlier work

T1 sequence (P47747 whole entry): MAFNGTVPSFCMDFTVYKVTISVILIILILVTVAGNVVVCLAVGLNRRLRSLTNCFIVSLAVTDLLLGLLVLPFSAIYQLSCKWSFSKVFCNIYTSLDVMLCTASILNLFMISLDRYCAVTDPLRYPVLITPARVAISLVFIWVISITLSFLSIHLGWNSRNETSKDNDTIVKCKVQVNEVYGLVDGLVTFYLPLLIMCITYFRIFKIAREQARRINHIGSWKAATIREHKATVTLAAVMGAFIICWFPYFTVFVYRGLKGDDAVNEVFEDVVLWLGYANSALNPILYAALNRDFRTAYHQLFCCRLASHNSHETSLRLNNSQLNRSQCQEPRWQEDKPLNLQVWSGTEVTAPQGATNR

| SMILES | effect on histamine H2-receptors / contractile rate of guinea pig right atria (histamine H2-receptors [1]) | inhibition of gastric secretion (gastric secretion; animals and man) | clinical effectiveness as H2 receptor antagonist (gastric secretion) | oral absorption [2] | concentration of maximal response (histamine-induced increase in atrial rate) (histamine H2-receptors [3]) [µM] | oral activity in man [2] | toxicity (agranulocytosis) [4] | H2 antagonist potency/effectiveness (H2 receptors) |
| --- | --- | --- | --- | --- | --- | --- | --- | --- |
| CNC(=S)NCCCCc1cnc[nH]1 [Burimamide] | a competitive antagonist of these receptors | inhibits gastric secretion in animals and man | first clinically effective H2 receptor antagonist | oral absorption is poor |  |  |  |  |
| NCCc1c[nH]cn1 [Histamine] | concentration-related increases in the contractile rate |  |  |  | 30 |  |  |  |
| CNC(=S)NCCSCc1[nH]cnc1C [Metiamide] |  |  |  |  |  | orally active in man | toxicity (agranulocytosis) | more potent than burimamide |
